The text below walks through data of patent US12447153B2, “HER2 mutation inhibitors” (Array BioPharma Inc., priority 2021, dated 2025).

Data set [1] deals with ErbB2 WT (Homo sapiens (Human), UniProt P04626). The data set is described as follows: ErbB Enzyme Assay (HTRF KinEASE-TK), Assay 2. Type of data set: biochemical.
Data set [2] concerns the target EGFR (Homo sapiens (Human), UniProt P00533). Briefly: ErbB Enzyme Assay (HTRF KinEASE-TK), Assay 3. It counts as biochemical.
The target in data set [3] is ErbB2 with Exon 20 YVMA insertion (HER2-YVMA) (Homo sapiens (Human), UniProt P04626, INS775YVMA). Briefly: Cellular Phosphorylation Assay, Assay 4 (constitutive ErbB2 phosphorylation, NIH 3T3 cells). Type of data set: cell-based.
Chain of ErbB2 with Exon 20 YVMA insertion (HER2-YVMA) (P04626 other isoform, or with tags, fused parts or gaps ins YVMA behind 775): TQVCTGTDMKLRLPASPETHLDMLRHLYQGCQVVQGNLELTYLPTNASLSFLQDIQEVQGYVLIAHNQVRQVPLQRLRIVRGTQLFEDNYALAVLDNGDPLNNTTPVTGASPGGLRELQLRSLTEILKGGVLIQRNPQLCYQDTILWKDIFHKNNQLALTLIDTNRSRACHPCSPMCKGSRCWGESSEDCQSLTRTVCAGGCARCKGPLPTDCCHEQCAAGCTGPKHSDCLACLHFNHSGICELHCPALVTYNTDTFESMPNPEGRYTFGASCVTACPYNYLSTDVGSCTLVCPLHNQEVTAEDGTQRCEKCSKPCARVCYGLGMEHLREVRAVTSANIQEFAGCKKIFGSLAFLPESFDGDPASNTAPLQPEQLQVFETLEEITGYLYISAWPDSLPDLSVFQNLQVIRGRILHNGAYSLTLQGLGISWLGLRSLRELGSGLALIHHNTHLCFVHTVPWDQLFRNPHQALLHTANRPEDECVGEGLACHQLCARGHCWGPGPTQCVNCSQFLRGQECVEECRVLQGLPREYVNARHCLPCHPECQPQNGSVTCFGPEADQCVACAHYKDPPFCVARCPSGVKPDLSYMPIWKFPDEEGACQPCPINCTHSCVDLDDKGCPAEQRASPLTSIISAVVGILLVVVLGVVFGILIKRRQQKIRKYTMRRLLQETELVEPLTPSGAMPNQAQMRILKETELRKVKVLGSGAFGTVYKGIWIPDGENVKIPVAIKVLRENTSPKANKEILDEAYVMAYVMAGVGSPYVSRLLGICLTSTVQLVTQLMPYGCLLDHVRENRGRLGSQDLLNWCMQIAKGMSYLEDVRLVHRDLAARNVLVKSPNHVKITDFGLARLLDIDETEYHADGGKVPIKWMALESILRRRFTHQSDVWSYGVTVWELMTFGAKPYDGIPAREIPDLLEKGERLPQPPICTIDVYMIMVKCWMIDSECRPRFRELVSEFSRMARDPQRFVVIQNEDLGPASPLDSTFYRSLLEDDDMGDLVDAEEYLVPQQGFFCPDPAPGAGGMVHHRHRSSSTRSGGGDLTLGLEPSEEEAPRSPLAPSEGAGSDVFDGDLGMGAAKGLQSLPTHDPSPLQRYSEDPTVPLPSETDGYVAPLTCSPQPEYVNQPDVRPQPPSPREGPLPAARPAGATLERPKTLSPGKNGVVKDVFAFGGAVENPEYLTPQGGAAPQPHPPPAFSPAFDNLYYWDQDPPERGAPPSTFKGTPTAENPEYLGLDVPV
The target of data set [4] is EGFR wild type (EGFR WT) (Homo sapiens (Human), UniProt P00533). Briefly: Cellular Phosphorylation Assay, Assay 5 (EGF-stimulated EGFR phosphorylation, NIH 3T3 cells). Type of data set: cell-based.
Chain of EGFR wild type (EGFR WT) (P00533 25-1210): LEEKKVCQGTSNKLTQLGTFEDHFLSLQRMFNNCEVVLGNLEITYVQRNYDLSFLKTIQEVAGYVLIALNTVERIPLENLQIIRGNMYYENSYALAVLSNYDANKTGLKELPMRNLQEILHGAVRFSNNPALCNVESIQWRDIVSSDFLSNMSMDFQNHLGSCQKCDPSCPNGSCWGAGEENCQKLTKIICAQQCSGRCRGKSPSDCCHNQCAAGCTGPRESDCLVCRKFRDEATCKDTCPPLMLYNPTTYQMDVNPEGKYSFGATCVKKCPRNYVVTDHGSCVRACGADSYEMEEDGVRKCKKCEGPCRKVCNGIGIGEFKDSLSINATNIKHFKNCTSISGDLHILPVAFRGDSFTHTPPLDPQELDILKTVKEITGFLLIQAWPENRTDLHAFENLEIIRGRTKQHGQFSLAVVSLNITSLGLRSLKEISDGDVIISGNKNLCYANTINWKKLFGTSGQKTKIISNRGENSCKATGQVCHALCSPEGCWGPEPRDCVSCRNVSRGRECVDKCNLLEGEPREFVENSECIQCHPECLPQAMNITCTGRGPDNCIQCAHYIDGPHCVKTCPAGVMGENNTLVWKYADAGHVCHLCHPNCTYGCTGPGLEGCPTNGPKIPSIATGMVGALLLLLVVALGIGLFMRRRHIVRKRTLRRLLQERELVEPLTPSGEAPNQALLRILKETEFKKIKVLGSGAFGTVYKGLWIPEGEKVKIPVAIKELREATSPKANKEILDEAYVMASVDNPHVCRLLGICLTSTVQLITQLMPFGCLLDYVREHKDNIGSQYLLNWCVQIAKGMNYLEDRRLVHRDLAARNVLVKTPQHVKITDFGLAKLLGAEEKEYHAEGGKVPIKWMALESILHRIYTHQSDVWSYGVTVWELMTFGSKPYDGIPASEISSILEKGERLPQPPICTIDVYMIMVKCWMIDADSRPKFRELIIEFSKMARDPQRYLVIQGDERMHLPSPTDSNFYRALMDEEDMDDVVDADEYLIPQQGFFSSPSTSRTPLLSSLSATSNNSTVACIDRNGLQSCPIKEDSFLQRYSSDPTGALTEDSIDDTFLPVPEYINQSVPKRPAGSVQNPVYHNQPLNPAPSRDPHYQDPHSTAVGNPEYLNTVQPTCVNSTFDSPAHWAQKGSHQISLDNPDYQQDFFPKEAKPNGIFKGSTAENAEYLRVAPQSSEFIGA
Data set [5] has as its target BCRP (Homo sapiens (Human), UniProt Q9UNQ0). Briefly: BCRP MDCKII efflux assay (Assay 7). It counts as in vitro ADME. Particulars: dog; efflux ratio Papp(B-A)/Papp(A-B), BCRP MDCKII cells; read-out: Assay 7 Pe Ratio. The method, then:
Assay conditions included with and without the BCRP-specific inhibitor, KO143, at a concentration of 0.3 μM to ascertain the contribution of BCRP to the efflux value of the test compound.
Final organic concentration in the assay was 1%.

In data set [6] the target is MDR1 (P-gp) (Homo sapiens (Human), UniProt P08183). The data set is described as follows: in vitro. Particulars: pig, LLC-PK1.
Chain of MDR1 (P-gp) (P08183 whole entry): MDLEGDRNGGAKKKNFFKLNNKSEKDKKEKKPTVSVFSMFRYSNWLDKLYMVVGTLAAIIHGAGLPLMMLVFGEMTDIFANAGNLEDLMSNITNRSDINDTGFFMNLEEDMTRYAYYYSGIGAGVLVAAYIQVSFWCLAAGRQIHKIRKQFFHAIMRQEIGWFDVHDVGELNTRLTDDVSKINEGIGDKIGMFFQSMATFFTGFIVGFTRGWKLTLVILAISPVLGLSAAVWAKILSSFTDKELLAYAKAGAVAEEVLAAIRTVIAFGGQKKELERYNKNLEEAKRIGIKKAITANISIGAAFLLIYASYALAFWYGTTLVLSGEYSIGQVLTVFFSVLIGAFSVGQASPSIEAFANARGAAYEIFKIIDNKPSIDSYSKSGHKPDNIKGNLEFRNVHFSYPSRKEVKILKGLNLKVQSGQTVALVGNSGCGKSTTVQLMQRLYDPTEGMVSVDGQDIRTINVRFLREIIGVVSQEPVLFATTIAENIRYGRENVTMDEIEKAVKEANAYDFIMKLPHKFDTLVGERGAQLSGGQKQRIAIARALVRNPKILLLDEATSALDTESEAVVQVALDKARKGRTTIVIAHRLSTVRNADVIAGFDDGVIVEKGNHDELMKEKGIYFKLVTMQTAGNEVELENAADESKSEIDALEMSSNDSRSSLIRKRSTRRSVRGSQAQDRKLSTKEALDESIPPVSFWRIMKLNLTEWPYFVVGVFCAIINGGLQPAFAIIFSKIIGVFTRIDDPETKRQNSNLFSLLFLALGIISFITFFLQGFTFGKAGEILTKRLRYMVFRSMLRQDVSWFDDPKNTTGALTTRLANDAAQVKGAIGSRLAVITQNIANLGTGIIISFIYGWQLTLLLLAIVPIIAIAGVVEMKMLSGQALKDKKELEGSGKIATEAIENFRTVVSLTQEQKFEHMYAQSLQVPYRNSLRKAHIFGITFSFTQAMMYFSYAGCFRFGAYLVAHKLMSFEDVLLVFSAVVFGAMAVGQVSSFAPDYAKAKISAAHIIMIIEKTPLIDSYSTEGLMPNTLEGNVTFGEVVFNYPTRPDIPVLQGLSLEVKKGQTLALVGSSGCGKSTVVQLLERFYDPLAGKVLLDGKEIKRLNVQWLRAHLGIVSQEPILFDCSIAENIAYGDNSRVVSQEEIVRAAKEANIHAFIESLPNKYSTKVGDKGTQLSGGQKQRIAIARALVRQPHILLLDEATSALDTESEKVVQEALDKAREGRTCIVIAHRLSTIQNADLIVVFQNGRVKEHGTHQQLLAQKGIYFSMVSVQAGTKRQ
Where [7] appears, read: EGF-stimulated EGFR WT phosphorylation.
Where [8] appears, read: cellular ErbB2 YVMA phosphorylation.
The mark [9] stands for this setting: cellular EGFR WT phosphorylation, EGF-stimulated.

Chain of EGFR (P00533 25-1210): as the sequence (P00533 25-1210) above

One may read the IC50 as the concentration at which inhibition is half-maximal. A lower IC50 goes with inhibition by little substance. With `C=CC(=O)N1C[C@@H]2C[C@H]1CN(c1ccc3ncnc(Nc4ccc(Oc5ccc6c(c5)ncn6C)c(C)c4F)c3n1)C2` [Example 109, 1-((1R,5S)-3-(4-((2-fluoro-3-methyl-4-((1-methyl-1H-benzo[d]imidazol-5-yl)oxy)phenyl)amino)pyrido[3,2-d]pyrimidin-6-yl)-3,6-diazabicyclo[3.2.1]octan-6-yl)prop-2-en-1-one], the IC50 was 282 nM in data set [1] (ErbB2 WT enzyme), at least 10000 nM in data set [2] (EGFR enzyme), 13.4 nM in data set [3] (ErbB2 YVMA phosphorylation) and at least 5000 nM in data set [4] (setting [7]). The efflux ratio at 2 h, 1 µM in data set [5] and in data set [6] was 2 in each case.

Regarding `C=CC(=O)N1CCN(c2ccc3ncnc(Nc4cc(C)c(Oc5ccc6c(c5)ncn6C)cc4F)c3n2)C[C@@H]1C1CC1` [Example 252], the concentration for half-maximal inhibition (IC50) is 170 nM in data set [1] (ErbB2 WT enzyme assay), 4580 nM in data set [2] (EGFR enzyme assay), 21.1 nM in data set [3] (setting [8]) and at least 5000 nM in data set [4] (setting [9]). Moreover, the efflux ratio at 2 h, 1 µM in data set [5] worked out at 2.9; in data set [6] it was 1.

On to `C=CC(=O)N1[C@@H]2CC[C@H]1[C@H](c1ccc3ncnc(Nc4ccc(Oc5ccn6ncnc6c5)c(C)c4F)c3n1)C2` (single isomer, unassigned) [Example 228], for which the IC50 in data set [1] (ErbB2 WT enzyme) is 130 nM; in data set [2] (EGFR enzyme), 4550 nM; in data set [3] (ErbB2 YVMA phosphorylation), 33.6 nM; in data set [4] (setting [7]), at least 5000 nM. The results for the efflux ratio at 2 h, 1 µM in data set [5] and in data set [6] were 3.3 and 0.8, respectively.

Consider `C=CC(=O)N1[C@@H]2CC[C@H]1[C@H](c1ccc3ncnc(Nc4ccc(Oc5cnc6c(c5)ncn6C)c(C)c4)c3n1)C2` [Example 408], for which the IC50 is 32 nM in data set [1] (ErbB2 WT enzyme assay), 498 nM in data set [2] (EGFR enzyme assay), 23.7 nM in data set [3] (setting [8]) and at least 5000 nM in data set [4] (setting [9]). Also, the efflux ratio at 2 h, 1 µM in data set [5] is 2.2; in data set [6], 1.1.

For `C=CC(=O)N1CCCC(c2ccc3ncnc(Nc4cc(C)c(Oc5cnc6c(c5)ncn6C)cc4F)c3n2)CC1` (stereo not drawn) [Example 412], the IC50 in data set [1] (ErbB2 WT enzyme assay) is 206 nM; in data set [2] (EGFR enzyme assay) it was at least 10000 nM; in data set [3] (setting [8]), 29.2 nM; in data set [4] (setting [9]) it was at least 5000 nM. For the same compound, the efflux ratio at 2 h, 1 µM was determined as 3 in data set [5] and 1.6 in data set [6].

Regarding `C=CC(=O)N1CCN(c2ccc3ncnc(Nc4cc(C)c(Oc5cnc6c(c5)ncn6C)cc4F)c3n2)CC1(C)C` [Example 357], the IC50 in data set [1] (ErbB2 WT enzyme assay) was 122 nM; in data set [2] (EGFR enzyme assay), 5050 nM; in data set [3] (setting [8]) it was 17.1 nM; in data set [4] (setting [9]), at least 5000 nM. The efflux ratio at 2 h, 1 µM in data set [5] worked out at 6.2; in data set [6], 1.6.

On to `C=CC(=O)N1CC[C@H]2CN(c3ccc4ncnc(Nc5ccc(Oc6ccn7ncnc7c6)c(Cl)c5F)c4n3)C[C@H]21` [Example 49, 1-((3aS,6aS)-5-(4-((4-([1,2,4]triazolo[1,5-a]pyridin-7-yloxy)-3-chloro-2-fluorophenyl)amino)pyrido[3,2-d]pyrimidin-6-yl)hexahydropyrrolo[3,4-b]pyrrol-1(2H)-yl)prop-2-en-1-one], for which the IC50 is 18.6 nM in data set [1] (ErbB2 WT enzyme), 1170 nM in data set [2] (EGFR enzyme), 10.5 nM in data set [3] (ErbB2 YVMA phosphorylation) and 2810 nM in data set [4] (setting [7]). Also, the values for the efflux ratio at 2 h, 1 µM in data set [5] and in data set [6] were 3 and 1.5, respectively.

On to `C=CC(=O)N1C[C@H](c2ccc3ncnc(Nc4ccc(Oc5ccc6c(c5)ncn6C)c(C)c4F)c3n2)CC[C@H]1C` [Example 169, 1-((2R,5R)-5-(4-((2-fluoro-3-methyl-4-((1-methyl-1H-benzo[d]imidazol-5-yl)oxy)phenyl)amino)pyrido[3,2-d]pyrimidin-6-yl)-2-methylpiperidin-1-yl)prop-2-en-1-one], for which the IC50 in data set [1] (ErbB2 WT enzyme) was 111 nM; in data set [2] (EGFR enzyme), 1810 nM; in data set [3] (ErbB2 YVMA phosphorylation), 23.6 nM; in data set [4] (setting [7]), at least 5000 nM. For the same compound, the figures for the efflux ratio at 2 h, 1 µM in data set [5] and in data set [6] were 2.1 and 1, respectively.

Take `C=CC(=O)N1CCN(c2ccc3ncnc(Nc4cc(C)c(Oc5ccn6ncnc6c5)cc4F)c3n2)C[C@@H]1CC` [Example 290]: the IC50 in data set [1] (ErbB2 WT enzyme assay) is 53.6 nM; in data set [2] (EGFR enzyme assay) it was 8710 nM; in data set [3] (setting [8]), 38.5 nM; in data set [4] (setting [9]), at least 5000 nM. In addition, the results for the efflux ratio at 2 h, 1 µM in data set [5] and in data set [6] were 4.8 and 1.5, respectively.

For the compound `C=CC(=O)N1CCN(c2ccc3ncnc(Nc4ccc(Oc5cnc6c(c5)ncn6C)c(C)c4F)c3n2)C[C@H]1C1CC1` [Example 165, (R)-1-(2-cyclopropyl-4-(4-((2-fluoro-3-methyl-4-((3-methyl-3H-imidazo[4,5-b]pyridin-6-yl)oxy)phenyl)amino)pyrido[3,2-d]pyrimidin-6-yl)piperazin-1-yl)prop-2-en-1-one], the IC50 in data set [1] (ErbB2 WT enzyme) was 177 nM; in data set [2] (EGFR enzyme), at least 10000 nM; in data set [3] (ErbB2 YVMA phosphorylation), 15.8 nM; in data set [4] (setting [7]), at least 5000 nM. For the same compound, the figures for the efflux ratio at 2 h, 1 µM in data set [5] and in data set [6] were 1.6 and 0.9, respectively.

With `C=CC(=O)N1CCN(c2ccc3ncnc(Nc4cc(Cl)c(Oc5ccn6ncnc6c5)cc4F)c3n2)C[C@@H]1C1CC1` [Example 286], the IC50 in data set [1] (ErbB2 WT enzyme assay) was 14.8 nM; in data set [2] (EGFR enzyme assay), at least 10000 nM; in data set [3] (setting [8]), 16.5 nM; in data set [4] (setting [9]) it was at least 5000 nM. Besides, the efflux ratio at 2 h, 1 µM in data set [5] is 2; in data set [6] it was 1.

In the case of `C=CC(=O)N1C[C@@H](c2ccc3ncnc(Nc4ccc(Oc5ccc6c(c5)ncn6C)c(C)c4F)c3n2)C[C@@H]1C` [Example 191, 1-((2S,4S)-4-(4-((2-fluoro-3-methyl-4-((1-methyl-1H-benzo[d]imidazol-5-yl)oxy)phenyl)amino)pyrido[3,2-d]pyrimidin-6-yl)-2-methylpyrrolidin-1-yl)prop-2-en-1-one], the 50% inhibitory concentration (IC50) came to 26.7 nM in data set [1] (ErbB2 WT enzyme), 1820 nM in data set [2] (EGFR enzyme), 15 nM in data set [3] (ErbB2 YVMA phosphorylation) and 2900 nM in data set [4] (setting [7]). Also, the efflux ratio at 2 h, 1 µM in data set [5] is 2.5; in data set [6], 0.9.

Consider `C=CC(=O)N1CCC[C@@H](c2ccc3ncnc(Nc4cc(C)c(Oc5ccc6c(c5)ncn6C)cc4F)c3n2)C1` (racemic) [Example 129, rac-(R)-1-(3-(4-((2-fluoro-5-methyl-4-((1-methyl-1H-benzo[d]imidazol-5-yl)oxy)phenyl)amino)pyrido[3,2-d]pyrimidin-6-yl)piperidin-1-yl)prop-2-en-1-one], for which the IC50 is 65.9 nM in data set [1] (ErbB2 WT enzyme), 7930 nM in data set [2] (EGFR enzyme), 16.6 nM in data set [3] (ErbB2 YVMA phosphorylation) and at least 5000 nM in data set [4] (setting [7]). Moreover, the efflux ratio at 2 h, 1 µM in data set [5] and in data set [6] was 1.4 each time.

`C=CC(=O)N1[C@@H]2CC[C@H]1[C@H](c1ccc3ncnc(Nc4ccc(Oc5ccn6ncnc6c5)c(Cl)c4F)c3n1)C2` [Example 404]: the IC50 in data set [1] (ErbB2 WT enzyme assay) was 7.2 nM; in data set [2] (EGFR enzyme assay), 104 nM; in data set [3] (setting [8]), 11.5 nM; in data set [4] (setting [9]), at least 5000 nM. Further, the figures for the efflux ratio at 2 h, 1 µM in data set [5] and in data set [6] were 5.2 and 1.2, respectively.

`C=CC(=O)N1CCCC(c2ccc3ncnc(Nc4ccc(Oc5ccn6ncnc6c5)c(C)c4)c3n2)CC1` (stereo not drawn) [Example 401]: the half-inhibitory concentration (IC50) is 9.2 nM in data set [1] (ErbB2 WT enzyme assay), 2720 nM in data set [2] (EGFR enzyme assay), 30 nM in data set [3] (setting [8]) and at least 5000 nM in data set [4] (setting [9]). Also, the efflux ratio at 2 h, 1 µM amounted to 5.5 in data set [5] and 1.5 in data set [6].

For `C=CC(=O)N1CCN(c2ccc3ncnc(Nc4ccc(Oc5ccc6c(c5)ncn6C)c(Cl)c4F)c3n2)CC1(C)C` [Example 262], the IC50 is 18.9 nM in data set [1] (ErbB2 WT enzyme assay), at least 10000 nM in data set [2] (EGFR enzyme assay), 32.4 nM in data set [3] (setting [8]) and at least 5000 nM in data set [4] (setting [9]). Also, the figures for the efflux ratio at 2 h, 1 µM in data set [5] and in data set [6] were 4.6 and 1.7, respectively.

`C=CC(=O)N1[C@@H]2CC[C@H]1C(c1ccc3ncnc(Nc4ccc(Oc5ccn6ncnc6c5)c(C)c4)c3n1)C2` (single isomer, unassigned) [Example 232]: the concentration for half-maximal inhibition (IC50) in data set [1] (ErbB2 WT enzyme) is 10.5 nM; in data set [2] (EGFR enzyme), 203 nM; in data set [3] (ErbB2 YVMA phosphorylation) it was 31.9 nM; in data set [4] (setting [7]) it was at least 5000 nM. Also, the efflux ratio at 2 h, 1 µM in data set [5] was determined as 2.6; in data set [6] it was 0.8.

Take `C=CC(=O)N1CCN(c2ccc3ncnc(Nc4ccc(Oc5cnc6c(c5)ncn6C)c(C)c4F)c3n2)C[C@H]1C` [Example 433]: the 50% inhibitory concentration (IC50) in data set [1] (ErbB2 WT enzyme assay) came out at 101 nM; in data set [2] (EGFR enzyme assay), 4830 nM; in data set [3] (setting [8]), 9.4 nM; in data set [4] (setting [9]) it was 2890 nM. In addition, the efflux ratio at 2 h, 1 µM in data set [5] was determined as 3.8; in data set [6] it was 1.1.

For the compound `C=CC(=O)N1[C@@H]2CC[C@H]1[C@H](c1ccc3ncnc(Nc4cc(C)c(Oc5ccc6c(c5)ncn6C)cc4F)c3n1)C2` [Example 393], the IC50 in data set [1] (ErbB2 WT enzyme assay) was 13.4 nM; in data set [2] (EGFR enzyme assay), 715 nM; in data set [3] (setting [8]), 15.4 nM; in data set [4] (setting [9]), at least 5000 nM. The efflux ratio at 2 h, 1 µM turned out to be 2.2 in data set [5] and 1.8 in data set [6].

Take `C=CC(=O)N1C[C@@H]2CC[C@H]1CN2c1ccc2ncnc(Nc3cc(C)c(Oc4ccn5ncnc5c4)cc3F)c2n1` [Example 319]: the IC50 in data set [1] (ErbB2 WT enzyme assay) is 8.1 nM; in data set [2] (EGFR enzyme assay), 192 nM; in data set [3] (setting [8]) it was 5.7 nM; in data set [4] (setting [9]), 264 nM. The efflux ratio at 2 h, 1 µM is 3.6 in data set [5] and 4.8 in data set [6].
